# According to patent US20250368666A1, “INDAZOLE COMPOUNDS” (TYRA BIOSCIENCES, INC., priority 2022, published 2025):
# pIC50: −log10 of the molar value.
# Tests used:
# [1] = test system: KG-1 cell line (FGFR 1-fusion); assay: Cancer cell line cell viability assay (Cell Titer-Glo), 72 hr; assay type: cell-based; conditions: Homo sapiens, KG-1, KG-1 cell line (FGFR1-fusion)
# Outline: (§1)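 5,000-20,000 cells/well o/n; cpd 9-pt 4x dil from 3 μM, n=3; 37° C/5% CO2; CTG 2.0 lumi; % DMSO ctrl; 4PL IC50.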
# [2] = test system: KATO-III cell line (FGFR2 amplification); assay: as above; assay type: cell-based; conditions: Homo sapiens, KATO III
# Outline: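 Following overnight attachment, each line receives compound in triplicate across nine 4-fold dilutions starting at 3 μM, with DMSO backfill for equal solvent. Luminescence after Cell Titer-Glo 2.0 addition gives percent viability versus DMSO control, fitted by 4-parameter logistic for IC50.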
# [3] = test system: RT112/84 cell line (FGFR3-fusion); assay: as above; assay type: cell-based; conditions: Homo sapiens, RT112/84, RT112/84 cell line (FGFR3-fusion)
# Outline: as §1
# [4] = test system: HuH7 cell line (FGF19 amplification); assay: Cancer cell line cell viability assay (Cell Titer-Glo), 120 hr; assay type: cell-based; conditions: Homo sapiens, Huh-7
# Outline: as §1
# [5] = test system: MDA-MB-453 cell line (FGFR4-Y367C); assay: as above; assay type: cell-based; conditions: Homo sapiens
# Outline: as §1
# [6] = target: T1, FGFR1 (Homo sapiens, UniProt P11362); assay: Kinase binding assay (kinase-tagged T7 phage, affinity beads, qPCR), Kd; conditions: read-out: FGFR1 (Kd nM)
# T1 construct: made in house; host or cells: E. coli (BL21-derived), T7 phage
# Outline: (§2)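 First, phage lysates carrying tagged kinase are made in E. coli at 32° C. Next, they are combined with blocked biotin-ligand streptavidin beads and compound at 0.9% final DMSO. Finally, eluted kinase is measured by qPCR and Kd is fitted with the Hill equation.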
# [7] = target: T2, FGFR4 (Homo sapiens, UniProt P22455); assay: as above; conditions: read-out: FGFR4 (Kd nM)
# T2 construct: made in house; host or cells: E. coli (BL21-derived), T7 phage
# Outline: as §2
# [8] = target: T3, FGFR3 (V555M) (Homo sapiens, UniProt P22607, V555M); assay: as above; conditions: V555M mutant; read-out: FGFR3 (V555M) (Kd nM)
# T3 construct: made in house; host or cells: E. coli (BL21-derived), T7 phage
# Outline: as §2
# [9] = target: T4, FGFR3 (Homo sapiens, UniProt P22607); assay: as above; conditions: read-out: FGFR3 (Kd nM)
# T4 construct: made in house; host or cells: E. coli (BL21-derived), T7 phage
# Outline: as §2
# [10] = target: T5, FGFR2 (Homo sapiens, UniProt P21802); assay: as above; conditions: read-out: FGFR2 (Kd nM)
# T5 construct: made in house; host or cells: E. coli (BL21-derived), T7 phage
# Outline: as §2
# T2 sequence (P22455 22-802): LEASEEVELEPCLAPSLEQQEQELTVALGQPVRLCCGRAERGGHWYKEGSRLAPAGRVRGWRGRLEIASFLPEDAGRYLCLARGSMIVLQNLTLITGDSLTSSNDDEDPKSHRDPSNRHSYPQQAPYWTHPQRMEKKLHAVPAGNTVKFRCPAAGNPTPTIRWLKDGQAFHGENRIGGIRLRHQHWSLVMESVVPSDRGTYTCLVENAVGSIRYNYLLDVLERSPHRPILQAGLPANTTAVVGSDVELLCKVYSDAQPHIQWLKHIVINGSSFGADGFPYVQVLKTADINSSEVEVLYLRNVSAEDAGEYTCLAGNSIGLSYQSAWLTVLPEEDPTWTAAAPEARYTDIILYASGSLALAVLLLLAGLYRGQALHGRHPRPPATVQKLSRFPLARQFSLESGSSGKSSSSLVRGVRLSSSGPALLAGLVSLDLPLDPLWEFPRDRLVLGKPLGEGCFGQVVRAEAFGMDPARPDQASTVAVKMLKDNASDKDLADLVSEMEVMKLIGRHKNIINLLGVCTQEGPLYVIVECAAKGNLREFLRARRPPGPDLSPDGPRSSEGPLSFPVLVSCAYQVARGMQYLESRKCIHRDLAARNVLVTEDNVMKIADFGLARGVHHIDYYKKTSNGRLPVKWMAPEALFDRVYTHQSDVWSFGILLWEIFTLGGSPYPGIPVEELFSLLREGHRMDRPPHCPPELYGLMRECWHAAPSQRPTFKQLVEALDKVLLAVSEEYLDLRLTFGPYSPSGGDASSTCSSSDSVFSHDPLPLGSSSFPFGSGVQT
# T3 sequence (P22607 23-806 V555M): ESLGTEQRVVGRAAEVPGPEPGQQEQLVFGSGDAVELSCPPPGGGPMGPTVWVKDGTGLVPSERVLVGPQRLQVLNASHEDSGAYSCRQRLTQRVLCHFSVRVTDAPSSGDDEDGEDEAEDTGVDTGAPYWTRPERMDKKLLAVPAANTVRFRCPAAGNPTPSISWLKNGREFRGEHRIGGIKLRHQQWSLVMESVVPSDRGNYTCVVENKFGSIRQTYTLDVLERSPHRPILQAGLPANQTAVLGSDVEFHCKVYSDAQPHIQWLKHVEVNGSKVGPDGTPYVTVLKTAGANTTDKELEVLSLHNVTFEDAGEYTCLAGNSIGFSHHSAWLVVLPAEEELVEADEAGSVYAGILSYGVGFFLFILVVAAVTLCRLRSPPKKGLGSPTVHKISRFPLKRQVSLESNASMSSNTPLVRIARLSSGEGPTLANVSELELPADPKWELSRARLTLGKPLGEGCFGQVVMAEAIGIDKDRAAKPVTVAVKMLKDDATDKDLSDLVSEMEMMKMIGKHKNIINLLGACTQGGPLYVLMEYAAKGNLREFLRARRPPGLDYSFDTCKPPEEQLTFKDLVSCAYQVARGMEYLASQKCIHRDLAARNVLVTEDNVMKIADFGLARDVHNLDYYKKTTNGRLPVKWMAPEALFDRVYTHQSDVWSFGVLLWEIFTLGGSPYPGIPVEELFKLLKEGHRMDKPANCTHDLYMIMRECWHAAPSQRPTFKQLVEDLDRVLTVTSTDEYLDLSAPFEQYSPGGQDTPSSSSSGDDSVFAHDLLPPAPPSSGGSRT
# T4 sequence (P22607 23-806): as the sequence (P22607 23-806 V555M) above, with M533V counted along it
# T5 sequence (P21802 22-821): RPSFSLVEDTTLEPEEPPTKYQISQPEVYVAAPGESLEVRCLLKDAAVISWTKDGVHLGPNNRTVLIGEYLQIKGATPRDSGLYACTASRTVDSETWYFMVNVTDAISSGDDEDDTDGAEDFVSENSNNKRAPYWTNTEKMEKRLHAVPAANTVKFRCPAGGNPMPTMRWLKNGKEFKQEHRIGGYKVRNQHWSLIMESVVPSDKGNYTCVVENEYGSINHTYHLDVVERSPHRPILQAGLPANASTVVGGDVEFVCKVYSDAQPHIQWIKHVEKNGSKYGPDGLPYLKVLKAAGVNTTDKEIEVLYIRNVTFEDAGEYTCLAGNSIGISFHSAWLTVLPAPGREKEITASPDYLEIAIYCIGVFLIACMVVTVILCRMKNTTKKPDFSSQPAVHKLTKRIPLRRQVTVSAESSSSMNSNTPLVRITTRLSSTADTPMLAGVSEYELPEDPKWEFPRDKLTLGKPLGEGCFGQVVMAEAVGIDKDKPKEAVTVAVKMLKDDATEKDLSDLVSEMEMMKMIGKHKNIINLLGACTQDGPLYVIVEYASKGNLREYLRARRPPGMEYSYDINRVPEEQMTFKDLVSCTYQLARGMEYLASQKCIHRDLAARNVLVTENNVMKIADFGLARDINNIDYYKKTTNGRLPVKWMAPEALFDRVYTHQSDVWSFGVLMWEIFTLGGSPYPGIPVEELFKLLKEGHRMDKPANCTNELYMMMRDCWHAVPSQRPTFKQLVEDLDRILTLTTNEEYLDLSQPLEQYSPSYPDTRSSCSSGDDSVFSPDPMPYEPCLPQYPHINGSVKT
# T1 sequence (P11362 22-822): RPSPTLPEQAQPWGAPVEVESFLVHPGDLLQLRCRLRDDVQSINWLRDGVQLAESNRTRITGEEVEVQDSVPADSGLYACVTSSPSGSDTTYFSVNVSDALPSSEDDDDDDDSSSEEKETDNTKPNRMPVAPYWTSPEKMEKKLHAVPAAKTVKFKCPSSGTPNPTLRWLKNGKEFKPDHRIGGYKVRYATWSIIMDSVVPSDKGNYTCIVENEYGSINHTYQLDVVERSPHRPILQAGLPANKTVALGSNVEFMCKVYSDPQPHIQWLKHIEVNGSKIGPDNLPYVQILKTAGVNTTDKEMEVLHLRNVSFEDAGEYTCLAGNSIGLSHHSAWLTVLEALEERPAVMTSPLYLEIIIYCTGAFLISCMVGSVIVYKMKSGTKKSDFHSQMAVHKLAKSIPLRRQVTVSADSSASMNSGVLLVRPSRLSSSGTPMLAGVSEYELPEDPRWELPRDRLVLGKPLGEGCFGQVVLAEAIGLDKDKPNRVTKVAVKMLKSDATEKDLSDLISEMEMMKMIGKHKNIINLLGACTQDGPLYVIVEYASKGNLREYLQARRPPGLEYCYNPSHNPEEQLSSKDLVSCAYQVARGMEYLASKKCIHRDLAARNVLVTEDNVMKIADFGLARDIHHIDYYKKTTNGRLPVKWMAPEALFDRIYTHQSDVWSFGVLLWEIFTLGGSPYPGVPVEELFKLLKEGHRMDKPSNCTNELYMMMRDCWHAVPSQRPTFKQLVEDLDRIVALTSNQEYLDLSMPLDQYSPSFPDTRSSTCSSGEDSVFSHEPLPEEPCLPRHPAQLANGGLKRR
Compound,pIC50 [1],pIC50 [2],pIC50 [3],pIC50 [4],pIC50 [5],Kd [6] [nM],Kd [7] [nM],Kd [8] [nM],Kd [9] [nM],Kd [10] [nM]
"CNC1(C)CN(c2ncc(-c3n[nH]c4cc(OC)c(O[C@H](C)c5c(Cl)cncc5Cl)cc34)cc2C#N)C1 [Example 9, 5-[5-[(1R)-1-(3,5-dichloro-4-pyridyl)ethoxy]-6-methoxy-1H-indazol-3-yl]-2-[3-methyl-3-(methylamino)azetidin-1-yl]pyridine-3-carbonitrile]",7.30 to 10.00,6.70 to 7.30,7.30 to 10.00,7.30 to 10.00,7.30 to 10.00,1 to 50,1 to 50,1 to 50,1 to 50,1 to 50
"COc1cc2[nH]nc(-c3cnc(N4CC(C)(NCC5CC5)C4)c(C#N)c3)c2cc1O[C@H](C)c1c(Cl)cncc1Cl [Example 14, 2-[3-(cyclopropylmethylamino)-3-methyl-azetidin-1-yl]-5-[5-[(1R)-1-(3,5-dichloro-4-pyridyl)ethoxy]-6-methoxy-1H-indazol-3-yl]pyridine-3-carbonitrile]",6.70 to 7.30,6.70 to 7.30,7.30 to 10.00,7.30 to 10.00,7.30 to 10.00,1 to 50,1 to 50,1 to 50,1 to 50,1 to 50
"COc1cc2[nH]nc(-c3cnc(N4CC(C)(N5CCOCC5)C4)c(C#N)c3)c2cc1O[C@H](C)c1c(Cl)cncc1Cl [Example 16, (R)-5-(5-(1-(3,5-dichloropyridin-4-yl)ethoxy)-6-methoxy-1H-indazol-3-yl)-2-(3-methyl-3-morpholinoazetidin-1-yl)nicotinonitrile]",6.70 to 7.30,6.70 to 7.30,7.30 to 10.00,7.30 to 10.00,7.30 to 10.00,1 to 50,1 to 50,1 to 50,1 to 50,1 to 50
"C[C@@H](Oc1ccc2[nH]nc(-c3cnc(N4CC(C)(N(C)C)C4)c(F)c3)c2c1)c1c(Cl)cncc1Cl [Example 81, (R)-1-(5-(5-(1-(3,5-dichloropyridin-4-yl)ethoxy)-1H-indazol-3-yl)-3-fluoropyridin-2-yl)-N,N,3-trimethylazetidin-3-amine]",6.70 to 7.30,6.70 to 7.30,7.30 to 10.00,7.30 to 10.00,7.30 to 10.00,1 to 50,1 to 50,1 to 50,1 to 50,1 to 50

# Results, then the compound that gave them:
pIC50 [1],pIC50 [2],pIC50 [3],pIC50 [4],pIC50 [5],Kd [6] [nM],Kd [7] [nM],Kd [8] [nM],Kd [9] [nM],Kd [10] [nM],Compound
6.00 to 6.70,6.70 to 7.30,6.70 to 7.30,7.30 to 10.00,7.30 to 10.00,1 to 50,1 to 50,1 to 50,1 to 50,1 to 50,"COc1cc2[nH]nc(-c3cnc(N4CC(C)(CP(C)(C)=O)C4)c(C#N)c3)c2cc1O[C@H](C)c1c(Cl)cncc1Cl [Example 53, (R)-5-(5-(1-(3,5-Dichloropyridin-4-yl)ethoxy)-6-methoxy-1H-indazol-3-yl)-2-(3-((dimethylphosphoryl)methyl)-3-methylazetidin-1-yl)nicotinonitrile]"
6.70 to 7.30,6.70 to 7.30,7.30 to 10.00,7.30 to 10.00,7.30 to 10.00,1 to 50,1 to 50,1 to 50,1 to 50,1 to 50,"COc1cc2[nH]nc(-c3cnc(N4CC(C)(NCC(C)(C)O)C4)c(C#N)c3)c2cc1O[C@H](C)c1c(Cl)cncc1Cl [Example 55, (R)-5-(5-(1-(3,5-dichloropyridin-4-yl)ethoxy)-6-methoxy-1H-indazol-3-yl)-2-(3-((2-hydroxy-2-methylpropyl)amino)-3-methylazetidin-1-yl)nicotinonitrile]"
6.70 to 7.30,7.30 to 10.00,7.30 to 10.00,7.30 to 10.00,7.30 to 10.00,1 to 50,1 to 50,1 to 50,1 to 50,1 to 50,"C[C@@H](Oc1ccc2[nH]nc(-c3cnc(N4CC(C)(N5CCOCC5)C4)c(F)c3)c2c1)c1c(Cl)cncc1Cl [Example 80, (R)-4-(1-(5-(5-(1-(3,5-Dichloropyridin-4-yl)ethoxy)-1H-indazol-3-yl)-3-fluoropyridin-2-yl)-3-methylazetidin-3-yl)morpholine]"
